Measurements: patent US12568967B2, “Compositions comprising pyridine carboxylate herbicides with synthetic auxin herbicides or auxin transport inhibitors” (priority 2018, dated 2026)
Several values for one entry are separate records, joined by “and”; a condition that tells them apart may be missing. Equal entries are not always repeated. Where two headings read alike, the source gives them in different places.

Key:
Type in all cases: in vivo
[1] = test system: Viola arvensis (field violet, VIOAR); experiment: Greenhouse postemergence trial VIOAR; conditions: for % visual injury Obs: alone; for % visual injury, Obs: applied alone; for % visual injury: c1-3 Compound A 7.5/10/15
[2] = test system: Papaver rhoeas (corn poppy), herbicide-resistant (PAPRH-R); experiment: Greenhouse postemergence trial PAPRH-R; conditions: PAPRH-R; for % visual injury, Obs: applied alone
[3] = test system: Kochia scoparia (kochia, KCHSC); experiment: Greenhouse postemergence trial KCHSC
[4] = test system: Digitaria sanguinalis (large crabgrass, DIGSA); experiment: Greenhouse postemergence trial DIGSA; conditions: Compound A 10 g/ha
Experimental: (§1) Seeds of the desired test plant species were planted in a 90:10% v/v (volume/volume) mixture of PRO-MIX® BX (Premier Tech Horticulture, Quakertown, PA, USA) and PROFILE® GREENS GRADE™ (Profile Products LLC, Buffalo Grove, IL, USA) planting mixture, which typically has a pH of 5.2 to 6.2 and an organic matter content of at least 50 percent, in plastic pots with a surface area of 103.2 square centimeters (cm^2). […] The plants were grown for 7-36 days (d) in a greenhouse with an approximate 14-hour (h) photo-period which was maintained at about 23° C. during the day and 22° C. during the night. Nutrients and water were added on a regular basis and supplemental lighting was provided with overhead metal halide 1000-Watt lamps as necessary. The plants were employed for testing when they reached the second or third true leaf stage.
Emulsifiable concentrates of each of each pyridine carboxylate herbicide (Compound A or Compound B) were prepared at 100 grams acid equivalent per liter (g ae/L). The emulsifiable concentrates also included a safener, cloquintocet-mexyl, at 120 grams active ingredient per liter (g ai/L), unless otherwise noted below. An aliquot of each emulsifiable concentrate was placed in a 25 mL glass vial and diluted with an aqueous mixture of 1.25% (v/v) ACTIROB® B esterified rapeseed oil (Bayer Crop Science, Research Triangle Park, NC, USA) or MSO® Concentrate with LECI-TECH® methylated soybean oil (Loveland Products, Loveland, CO, USA) to obtain concentrated stock solutions at the highest application rate for each herbicide, based upon a 12 milliliter (mL) application volume at a rate of 187 liters per hectare (L/ha). The concentrated stock solutions were further diluted with an aqueous mixture of 1.25% v/v ACTIROB® B or MSO® Concentrate with LECI-TECH® to obtain stock solutions at reduced application rates for each herbicide. Spray solutions of the herbicide combinations (Compound A or Compound B plus synthetic auxin herbicide or auxin transport inhibitor) were prepared by adding weighed amounts or aliquots of the synthetic auxin herbicide or auxin transport inhibitor to the stock solutions of Compound A or Compound B to form 12-mL spray solutions in two-way combinations.
The spray solutions were applied to the plant material with an overhead Mandel track sprayer equipped with 8002E nozzles calibrated to deliver 187 L/ha over an application area of 0.503 square meters (m^2) at a spray height of 18 inches (43 centimeters (cm)) above the average plant canopy. Control plants were sprayed in the same manner with the solvent blank. All pyridine carboxylate herbicide (component a) application rates are given as “g ae/ha” and all synthetic auxin herbicide or auxin transport inhibitor (component b) application rates are given as “g ai/ha.”
(§2) The treated plants and control plants were placed in a greenhouse as described above and watered by sub-irrigation to prevent wash-off of the test compounds. After 20-22 d, the condition of the test plants as compared with that of the control plants was determined visually and scored on a scale of 0 to 100 percent where 0 corresponds to no injury and 100 corresponds to complete kill.

[5] = test system: Cyperus esculentus (nutsedge, CYPES); experiment: Greenhouse postemergence trial CYPES; conditions: Compound A 10 g/ha
Experimental: as §1
Emulsifiable concentrates of each of each pyridine carboxylate herbicide (Compound A or Compound B) were prepared at 100 grams acid equivalent per liter (g ae/L). The emulsifiable concentrates also included a safener, cloquintocet-mexyl, at 120 grams active ingredient per liter (g ai/L), unless otherwise noted below. An aliquot of each emulsifiable concentrate was placed in a 25 mL glass vial and diluted with an aqueous mixture of 1.25% (v/v) ACTIROB® B esterified rapeseed oil (Bayer Crop Science, Research Triangle Park, NC, USA) or MSO® Concentrate with LECI-TECH® methylated soybean oil (Loveland Products, Loveland, CO, USA) to obtain concentrated stock solutions at the highest application rate for each herbicide, based upon a 12 milliliter (mL) application volume at a rate of 187 liters per hectare (L/ha). The concentrated stock solutions were further diluted with an aqueous mixture of 1.25% v/v ACTIROB® B or MSO® Concentrate with LECI-TECH® to obtain stock solutions at reduced application rates for each herbicide. Spray solutions of the herbicide combinations (Compound A or Compound B plus synthetic auxin herbicide or auxin transport inhibitor) were prepared by adding weighed amounts or aliquots of the synthetic auxin herbicide or auxin transport inhibitor to the stock solutions of Compound A or Compound B to form 12-mL spray solutions in two-way combinations. […]
as §2

[6] = test system: Hordeum vulgare (spring barley, HORVS)
[7] = test system: Salsola kali (Russian thistle, SASKR); experiment: Greenhouse postemergence trial SASKR;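 also: greenhouse plants sprayed at second or third true leaf stage, injury rated by eye after 20-22 d against solvent-blank controls, 0 meaning no injury, 100 complete kill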
[8] = Hordeum vulgare (spring barley, HORVS), in vivo

N#CCOC(=O)c1nc(-c2ccc3cc[nH]c3c2F)c(F)c(N)c1Cl [Compound A, cyanomethyl 4-amino-3-chloro-5-fluoro-6-(7-fluoro-1H-indol-6-yl)pyridine-2-carboxylate]
visual injury, Obs ([1]; VIOAR, Compound A 10 g/ha alone): 10% | visual injury, Obs ([1]; VIOAR, Compound A 15 g/ha alone): 15% | % visual injury Obs ([1]; VIOAR, 10 g/ha): 10% | % visual injury Obs ([1]; VIOAR, 15 g/ha): 15% | % visual injury, Obs ([1]; VIOAR, 10 g/ha): 10% | % visual injury, Obs ([1]; VIOAR, 15 g/ha): 15% | pest or weed control at […] ([1]; Viola arvensis, post-emergence, VIOAR, Compound A 7.5 g/ha, read-out: % visual injury Obs): 10% | pest or weed control at 10 g/ha ([1]; Viola arvensis, post-emergence, VIOAR, Compound A 10 g/ha, read-out: % visual injury Obs): 10% | pest or weed control at 15 g/ha ([1]; Viola arvensis, post-emergence, VIOAR, Compound A 15 g/ha, read-out: % visual injury Obs): 15% | % visual injury ([1]; c4-5 Fluroxypyr-MHE 100/140, c6-8, c9-11 A 7.5/10/15 + Fluroxypyr-MHE 100, 140 g/ha): 5% | % visual injury ([1]; c4-6 Clopyralid 30/60/120, c7-9, c10-12, c13-15 A 7.5/10/15 + Clopyralid 30, 60, 120 g/ha): 5% | % visual injury ([1]; c4 Aminopyralid 5, c5-7 A 7.5/10/15 + Aminopyralid 5 g/ha): 5% | % visual injury ([1]; c4 Halauxifen-methyl 6, c5-7 A 7.5/10/15 + Halauxifen-methyl 6 g/ha): 5% | % visual injury Obs ([2]; Compound A 10 g/ha): 90% | visual injury, Obs ([2]; Compound A 10 g/ha alone): 90% | visual injury, Obs ([2]; Compound A 15 g/ha alone): 100% | % visual injury Obs ([2]; alone, 10 g/ha): 90% | % visual injury Obs ([2]; alone, 15 g/ha): 100% | % visual injury, Obs ([2]; 10 g/ha): 90% | % visual injury, Obs ([2]; 15 g/ha): 100% | pest or weed control at […] ([2]; Papaver rhoeas, post-emergence, Compound A 7.5 g/ha, read-out: % visual injury Obs): 85% | pest or weed control at 10 g/ha ([2]; Papaver rhoeas, post-emergence, Compound A 10 g/ha, read-out: % visual injury Obs): 90% | pest or weed control at 15 g/ha ([2]; Papaver rhoeas, post-emergence, Compound A 15 g/ha, read-out: % visual injury Obs): 100% | pest or weed control at […] ([3]; Bassia scoparia, post-emergence, KCHSC, Compound A 7.5 g/ha, read-out: % visual injury Obs): 70% | pest or weed control at 10 g/ha ([3]; Bassia scoparia, post-emergence, KCHSC, Compound A 10 g/ha, read-out: % visual injury Obs): 75% | pest or weed control at 15 g/ha ([3]; Bassia scoparia, post-emergence, KCHSC, Compound A 15 g/ha, read-out: % visual injury Obs): 80% | KCHSC Obs (% visual injury) ([3]; Compound A 10 g/ha): 65% and 55% | KCHSC % visual injury Obs ([3]; Compound A 10 g/ha (Table 42)): 65% | KCHSC % visual injury Obs ([3]; Compound A 10 g/ha (Table 43)): 65% | KCHSC % visual injury Obs ([3]; Compound A 10 g/ha (Table 44)): 65% | KCHSC Obs (% visual injury) ([3]; Compound A 10 g/ha, without safener): 88% | % visual injury Obs ([3]; KCHSC, Compound A 10 g/ha): 75% | % visual injury, Obs ([3]; KCHSC, Compound A 10 g/ha): 65% and 70% and 88% | visual injury, Obs ([3]; KCHSC, Compound A 10 g/ha alone): 75% | visual injury, Obs ([3]; KCHSC, Compound A 15 g/ha alone): 80% | % visual injury (Obs) ([3]; KCHSC, alone 10 g/ha): 68% and 55% and 70% | % visual injury Obs ([3]; KCHSC, alone 10 g/ha): 75% | % visual injury Obs ([3]; KCHSC, alone, 15 g/ha): 80% | % visual injury, Obs ([3]; KCHSC, applied alone, 10 g/ha): 75% and 70% | % visual injury, Obs ([3]; KCHSC, applied alone, 15 g/ha): 80% | DIGSA Obs (% visual injury) [4]: 25% | DIGSA Obs (% visual injury) ([4]; without safener): 8% | % visual injury, Obs ([4]; DIGSA): 8% | % visual injury, Obs ([5]; CYPES): 0% | CYPES Obs (% visual injury) ([5]; without safener): 0% | HORVS Obs (% visual injury) ([6]; Compound A 10 g/ha): 0% | HORVS % visual injury Obs ([6]; Compound A 10 g/ha (Table 42)): 0% | HORVS % visual injury Obs ([6]; Compound A 10 g/ha (Table 43)): 0% | HORVS % visual injury Obs ([6]; Compound A 10 g/ha (Table 44)): 0% | % visual injury Obs ([6]; HORVS, Compound A 10 g/ha): 0% | % visual injury, Obs ([6]; HORVS, Compound A 10 g/ha): 0% | visual injury, Obs ([6]; HORVS, Compound A 10 g/ha alone): 0% | % visual injury Obs ([6]; HORVS, Compound A 15 g/ha): 0% | visual injury, Obs ([6]; HORVS, Compound A 15 g/ha alone): 0% | % visual injury (Obs) ([6]; HORVS, alone 10 g/ha): 0% | % visual injury Obs ([6]; HORVS, alone 10 g/ha): 0% | % visual injury Obs ([6]; HORVS, alone, 15 g/ha): 0% | % visual injury, Obs ([6]; HORVS, applied alone, 10 g/ha): 0% | % visual injury, Obs ([6]; HORVS, applied alone, 15 g/ha): 0% | % visual injury (crop phytotoxicity) [6, 8]: 0% | % visual injury, Obs (crop phytotoxicity) [6, 8]: 0% | % visual injury (crop phytotoxicity) ([6]; c1-2 Compound A 7.5/10, c3 Quinclorac 140, c4-5 A 7.5/10 + Quinclorac 140 g/ha): 0% | % visual injury (crop phytotoxicity) ([6]; c1-3 Compound A 7.5/10/15, c4-5 Fluroxypyr-MHE 100/140, c6-8, c9-11 A 7.5/10/15 + Fluroxypyr-MHE 100, 140 g/ha): 0% | % visual injury (crop phytotoxicity) ([6]; c1-3 Compound A 7.5/10/15, c4 Aminopyralid 5, c5-7 A 7.5/10/15 + Aminopyralid 5 g/ha): 0% | % visual injury (crop phytotoxicity) ([6]; c1-3 Compound A 7.5/10/15, c4 Halauxifen-methyl 6, c5-7 A 7.5/10/15 + Halauxifen-methyl 6 g/ha): 0% | SASKR Obs (% visual injury) ([7]; Compound A 10 g/ha): 65% and 63% | SASKR % visual injury Obs ([7]; Compound A 10 g/ha (Table 42)): 65%
